Patent US20180127374A1, “BE[…] AS OPIOID RECEPTORS MODULATORS” (Purdue Pharma L.P., priority 2012, published 2018)
Where two headings read alike, the source gives them in different places.

Key:
[1] = biological target: T1, human opioid receptor-like receptor (ORL-1) (Homo sapiens, UniProt P41146); assay: ORL-1 receptor radioligand binding assay
T1 construct: host or cells: HEK-293
Protocol: Membranes from recombinant HEK-293 cells expressing the human opioid receptor-like receptor (ORL-1) (Perkin Elmer, Shelton, Conn.) were prepared by lysing cells in ice-cold hypotonic buffer (2.5 mM MgCl2, 50 mM HEPES, pH 7.4) (10 ml/10 cm dish) followed by homogenization with a tissue grinder/Teflon pestle. Membranes were collected by centrifugation at 30,000×g for 15 min at 4° C. and pellets resuspended in hypotonic buffer to a final concentration of 1-3 mg/ml. Protein concentrations were determined using the BioRad protein assay reagent with bovine serum albumen as standard. Aliquots of the ORL-1 receptor membranes were stored at −80° C.
The data from screening and dose-displacement experiments were analyzed using Microsoft Excel and the curve fitting functions in GraphPad PRISM™, v. 3.0 or higher, respectively, or an in-house function for one-site competition curve-fitting.

δ opioid receptor = δ opioid receptor (Homo sapiens, UniProt P41143); assay: δ-opioid receptor radioligand dose-displacement binding assay
Chain of δ opioid receptor (P41143 whole entry): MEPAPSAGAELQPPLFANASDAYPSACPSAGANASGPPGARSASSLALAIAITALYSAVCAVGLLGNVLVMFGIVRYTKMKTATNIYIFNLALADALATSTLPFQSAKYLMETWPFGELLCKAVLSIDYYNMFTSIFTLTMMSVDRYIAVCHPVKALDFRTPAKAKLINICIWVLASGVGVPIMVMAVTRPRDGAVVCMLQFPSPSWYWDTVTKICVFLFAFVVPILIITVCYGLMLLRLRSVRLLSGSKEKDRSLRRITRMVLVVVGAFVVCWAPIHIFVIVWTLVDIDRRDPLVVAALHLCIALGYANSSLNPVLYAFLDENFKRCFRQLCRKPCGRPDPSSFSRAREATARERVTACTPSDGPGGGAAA
Protocol: δ-opioid Receptor Binding Assay Procedures were conducted as follows. Radioligand dose-displacement assays used 0.3 nM [^3H]-Naltrindole (Perkin Elmer, Shelton, Conn.; 33.0 Ci/mmole) with 5 μg membrane protein (Perkin Elmer, Shelton, Conn.) in a final volume of 500 μl binding buffer (5 mM MgCl2, 5% DMSO, 50 mM Trizma base, pH 7.4). Non-specific binding was determined in the presence of 25 μM unlabeled naloxone. All reactions were performed in 96-deep well polypropylene plates for 1 hr at a temperature of about 25° C. Binding reactions were terminated by rapid filtration onto 96-well Unifilter GF/C filter plates (Perkin Elmer, Shelton, Conn.) presoaked in 0.5% polyethylenimine (Sigma). Harvesting was performed using a 96-well tissue harvester (Perkin Elmer, Shelton, Conn.) followed by five filtration washes with 500 μl ice-cold binding buffer. Filter plates were subsequently dried at 50° C. for 1-2 hours. Fifty μl/well scintillation cocktail (Perkin Elmer, Shelton, Conn.) was added and plates were counted in a Packard Top-Count for 1 min/well.

κ opioid receptor [2] = biological target: T2, κ opioid receptor (Homo sapiens, UniProt P41145); assay: κ-opioid receptor [35S]GTPγS functional assay; type: biochemical; design: expressed in transfected cells; settings: for Emax: relative to the effect elicited by U69,593
T2 sequence (P41145 whole entry): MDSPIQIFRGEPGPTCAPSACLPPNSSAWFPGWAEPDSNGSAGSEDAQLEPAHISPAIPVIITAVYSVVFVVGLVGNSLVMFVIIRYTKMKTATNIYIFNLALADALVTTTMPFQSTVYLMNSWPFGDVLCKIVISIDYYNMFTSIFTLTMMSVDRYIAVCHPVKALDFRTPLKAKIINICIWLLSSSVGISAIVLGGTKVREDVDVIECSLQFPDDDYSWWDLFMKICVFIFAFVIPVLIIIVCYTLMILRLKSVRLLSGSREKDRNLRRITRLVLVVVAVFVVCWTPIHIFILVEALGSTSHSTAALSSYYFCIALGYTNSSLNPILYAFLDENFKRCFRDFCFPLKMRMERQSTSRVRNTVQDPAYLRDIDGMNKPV
Protocol: Functional [^35S]GTPγS binding assays were conducted as follows. κ opioid receptor membrane solution was prepared by sequentially adding final concentrations of 0.026 μg/μl κ membrane protein (in-house), 10 μg/mL saponin, 3 μM GDP and 0.20 nM [^35S]GTPγS to binding buffer (100 mM NaCl, 10 mM MgCl2, 20 mM HEPES, pH 7.4) on ice. The prepared membrane solution (190 μl/well) was transferred to 96-shallow well polypropylene plates containing 10 μl of 20× concentrated stock solutions of agonist prepared in DMSO. Plates were incubated for 30 min at a temperature of about 25° C. with shaking.
κ GTP EC50 is the concentration of a compound providing 50% of the maximal response for the compound at a κ receptor.
κ GTP Emax (%) is the maximal effect elicited by a compound relative to the effect elicited by U69,593.

μ-opioid receptor [3] = biological target: T3, μ-opioid receptor (Homo sapiens, UniProt P35372); assay: μ-opioid receptor [35S]GTPγS functional assay; type: biochemical; design: purchased Perkin Elmer, Shelton, Conn; settings: for Emax: relative to the effect elicited by DAMGO
Protocol: [^35S]GTPγS functional assays were conducted using freshly thawed μ-receptor membranes (Perkin Elmer, Shelton, Conn.). Assay reactions were prepared by sequentially adding the following reagents to binding buffer (100 mM NaCl, 10 mM MgCl2, 20 mM HEPES, pH 7.4) on ice (final concentrations indicated): membrane protein (0.026 mg/mL), saponin ([…]), GDP ([…]) and [^35S]GTPγS (0.20 nM; Perkin Elmer, Shelton, Conn.). The prepared membrane solution (190 μl/well) was transferred to 96-shallow well polypropylene plates containing 10 μI of 20× concentrated stock solutions of the agonist [D-Ala^e, N-methyl-Phe^4 Gly-ol^5]-enkephalin (DAMGO) prepared in dimethyl sulfoxide (DMSO). Plates were incubated for 30 min at about 25° C. with shaking. […] Data were analyzed using the sigmoidal dose-response curve fitting functions in GraphPad PRISM v. 3.0, or an in-house function for non-linear, sigmoidal dose-response curve-fitting.
μ GTP EC50 is the concentration of a compound providing 50% of the maximal response for the compound at a μ-opioid receptor.
μ GTP Emax (%) is the maximal effect elicited by a compound relative to the effect elicited by DAMGO, a standard μ agonist. Generally, the μ GTP Emax (%) value measures the efficacy of a compound to treat or prevent pain or other Conditions.
Target sequence in this assay (P35372 whole entry, species assumed): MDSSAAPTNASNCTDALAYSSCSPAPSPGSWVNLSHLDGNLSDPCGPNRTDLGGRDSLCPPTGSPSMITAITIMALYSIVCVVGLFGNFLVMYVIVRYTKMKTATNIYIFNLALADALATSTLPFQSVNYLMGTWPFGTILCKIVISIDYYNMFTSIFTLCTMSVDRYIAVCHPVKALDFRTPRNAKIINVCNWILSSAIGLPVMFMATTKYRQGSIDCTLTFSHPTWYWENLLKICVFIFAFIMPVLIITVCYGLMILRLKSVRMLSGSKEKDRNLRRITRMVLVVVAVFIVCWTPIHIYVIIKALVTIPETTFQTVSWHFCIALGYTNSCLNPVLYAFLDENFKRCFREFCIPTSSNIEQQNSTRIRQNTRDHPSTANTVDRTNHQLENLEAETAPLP

μ-opioid receptor [4] = biological target: T3, μ-opioid receptor; assay: μ-opioid receptor radioligand dose-displacement binding assay
Protocol: Radioligand dose-displacement binding assays for μ-opioid receptors used 0.3 nM [^3H]-diprenorphine (Perkin Elmer, Shelton, Conn.), with […] membrane protein/well in a final volume of […] binding buffer (10 mM MgCl2, 1 mM EDTA, 5% DMSO, 50 mM HEPES, pH 7.4). Reactions were carried out in the absence or presence of increasing concentrations of unlabeled naloxone. All reactions were conducted in 96-deep well polypropylene plates for 2 hr at room temperature. […] The data were analyzed using the one-site competition curve fitting functions in GraphPad PRISM™ v. 3.0 or higher (San Diego, Calif.), or an in-house function for one-site competition curve-fitting.
Target sequence in this assay (P35372 whole entry): as the sequence (P35372 whole entry, species assumed) above

κ opioid receptor [5] = biological target: T2, κ opioid receptor; assay: κ-opioid receptor radioligand dose displacement binding assay; design: expressed in transfected cells; host or cells: HEK-293
Protocol: Membranes from recombinant HEK-293 cells expressing the human κ opioid receptor (κ) (cloned in house) were prepared by lysing cells in ice cold hypotonic buffer (2.5 mM MgCl2, 50 mM HEPES, pH 7.4) (10 mL/10 cm dish) followed by homogenization with a tissue grinder/Teflon pestle. Membranes were collected by centrifugation at 30,000×g for 15 min at 4° C. and pellets were resuspended in hypotonic buffer to a final concentration of 1-3 mg/mL. Protein concentrations were determined using the BioRad protein assay reagent with bovine serum albumen as standard. Aliquots of κ receptor membranes were stored at […]

[6] = [3H]-nociceptin displacement, HEK-293 membranes, read-out: Ki (nM) ORL-1
[7] = κ membrane protein (in-house), read-out: GTPγS κ EC50
[8] = μ-receptor membranes, read-out: GTPγS μ EC50
[9] = [3H]-diprenorphine displacement, read-out: Ki (nM) Opioid Receptor μ
[10] = [3H]-U69,593 displacement, HEK-293 membranes, read-out: Ki (nM) Opioid Receptor κ

T1 sequence (P41146 whole entry): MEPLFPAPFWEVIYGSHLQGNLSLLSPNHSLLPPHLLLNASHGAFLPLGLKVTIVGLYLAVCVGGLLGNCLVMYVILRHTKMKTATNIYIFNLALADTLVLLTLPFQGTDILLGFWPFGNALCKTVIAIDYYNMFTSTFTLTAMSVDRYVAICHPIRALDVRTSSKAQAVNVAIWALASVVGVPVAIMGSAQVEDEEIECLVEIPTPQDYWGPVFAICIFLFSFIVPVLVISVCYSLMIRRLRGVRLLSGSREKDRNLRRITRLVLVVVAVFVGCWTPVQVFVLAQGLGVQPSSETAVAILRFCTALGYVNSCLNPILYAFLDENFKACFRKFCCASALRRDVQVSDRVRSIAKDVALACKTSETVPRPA

| Structure (SMILES) | Ki [1] | Ki (δ opioid receptor) | EC50 (κ opioid receptor [2]) | Emax (κ opioid receptor [2]) | EC50 (μ-opioid receptor [3]) | Ki (μ-opioid receptor [4]) | Ki (κ opioid receptor [5]) | Ki [1, 6] | EC50 (κ opioid receptor [2]; [7]) | Emax (μ-opioid receptor [3]) | EC50 (μ-opioid receptor [3]; [8]) | Ki (μ-opioid receptor [4]; [9]) | Ki (κ opioid receptor [5]; [10]) |
| --- | --- | --- | --- | --- | --- | --- | --- | --- | --- | --- | --- | --- | --- |
| COc1ccc2c(c1)[C@@]1(CCC[C@H](O)CO)CCN(CC3CC3)C(C2)[C@@H]1C [Compound 11, (2S)-5-((6S,11R)-3-(cyclopropylmethyl)-8-methoxy-11-methyl-1,2,3,4,5,6-hexahydro-2,6-methanobenzo[d]azocin-6-yl)pentane-1,2-diol] | 13100 ± 1060 nM | 4980 ± 456 nM | 210 nM | 81% | > 20000 nM | 235 ± 17.3 nM | 3.23 ± 0.5 nM | – | – | – | – | – | – |
| COC(=O)[C@H](C)NC(=O)CCC[C@]12CCN(CC3CC3)[C@H](Cc3ccc(O)cc31)[C@@H]2C [Compound 21, (S)-methyl 2-(4-((2R,6R,11R)-3-(cyclopropylmethyl)-8-hydroxy-11-methyl-1,2,3,4,5,6-hexahydro-2,6-methanobenzo[d]azocin-6-yl)butanamido)propanoate] | – | 8.81 ± 0.71 nM | – | 67.5% | – | – | – | 2430 ± 718 nM | 9.72 nM | 36.7% | 5.45 nM | 5.05 ± 1.34 nM | 0.13 ± 0.02 nM |
| COC(=O)CCC[C@]12CCN(CC3CC3)[C@H](Cc3ccc(O)cc31)[C@@H]2C [Compound 23, methyl 4-((2R,6R,11R)-3-(cyclopropylmethyl)-8-hydroxy-11-methyl-1,2,3,4,5,6-hexahydro-2,6-methanobenzo[d]azocin-6-yl)butanoate] | – | 32.6 ± 2.97 nM | – | 57% | – | – | – | 2240 ± 285 nM | 5.19 nM | 18% | 2.33 nM | 1.16 ± 0.36 nM | 0.07 ± 0.01 nM |
